This passage reports relative viability results from the supplement of paper PMC10307832.

Holding throughout (assay): relative viability (nuclei count vs DMSO), 5 days (fraction); higher = more cells survive
Compound in the assay “Salubrinal + Bortezomib”: O=C(/C=C/c1ccccc1)NC(NC(=S)Nc1cccc2cccnc12)C(Cl)(Cl)Cl [Salubrinal] + CC(C)C[C@H](NC(=O)[C@H](Cc1ccccc1)NC(=O)c1cnccn1)B(O)O [Bortezomib] (partner 0.002 µM)
In outline: (§1)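 For relative viability, nuclei counts in treated wells were divided by those in vehicle wells. Lung cancer cell lines had been pin-tool dosed in 1536-well plates the day after seeding and cultured for 5 days, then fixed and stained in one step (final 0.05% Triton X-100, 1% formaldehyde, 1 ug/ml Hoechst) and imaged at 4×. Doses were one drug alone or a fixed anchor-drug dose plus five library-drug doses (not always all listed) in √10 steps, and values are duplicate-plate medians.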

Compound in assay [1]: Cc1ccc2nc(NCCN)c3ncc(C)n3c2c1 + Cc1cc(Nc2cc(N3CCN(C)CC3)nc(Sc3ccc(NC(=O)C4CC4)cc3)n2)n[nH]1 [Tozasertib] (partner 0.1 µM)
In outline: as §1

Compound in the assay “Salubrinal + Olaparib”: O=C(/C=C/c1ccccc1)NC(NC(=S)Nc1cccc2cccnc12)C(Cl)(Cl)Cl [Salubrinal] + O=C(c1cc(Cc2n[nH]c(=O)c3ccccc23)ccc1F)N1CCN(C(=O)C2CC2)CC1 [Olaparib] (partner 8 µM)
The gist of the method: as §1

Compound in the assay “Salubrinal + Dasatinib”: O=C(/C=C/c1ccccc1)NC(NC(=S)Nc1cccc2cccnc12)C(Cl)(Cl)Cl [Salubrinal] + Cc1nc(Nc2ncc(C(=O)Nc3c(C)cccc3Cl)s2)cc(N2CCN(CCO)CC2)n1 [Dasatinib] (partner 0.075 µM)
The gist of the method:
as §1

With UMC-11, the relative viability in the assay with Salubrinal + Bortezomib (first compound 0.08 µM) was determined as 0.747; in the assay with Salubrinal + Bortezomib (first compound 0.253 µM), 0.462; in the assay with Salubrinal + Bortezomib (first compound 0.8 µM), 1.29; with Salubrinal + Bortezomib (first compound 2.53 µM) it was 0.904; with Salubrinal + Bortezomib (first compound 8 µM), 0.575; in assay [1] (first compound 0.04 µM), 0.211. Moreover, the relative viability was 0.233 in assay [1] (first compound 0.1265 µM); 0.209 in assay [1] (first compound 0.4 µM); 0.205 in assay [1] (first compound 1.265 µM); 0.194 in assay [1] (first compound 4 µM); 0.355 in the assay with Salubrinal + Olaparib (first compound 0.08 µM); 0.368 in the assay with Salubrinal + Olaparib (first compound 0.253 µM). Further, the relative viability was found to be 0.386 with Salubrinal + Olaparib (first compound 0.8 µM); 0.337 with Salubrinal + Olaparib (first compound 2.53 µM); 0.393 with Salubrinal + Olaparib (first compound 8 µM); 0.654 with Salubrinal + Dasatinib (first compound 0.08 µM); 0.306 in the assay with Salubrinal + Dasatinib (first compound 0.253 µM); 0.621 with Salubrinal + Dasatinib (first compound 0.8 µM). Further, the relative viability was 0.458 with Salubrinal + Dasatinib (first compound 2.53 µM) and 0.471 with Salubrinal + Dasatinib (first compound 8 µM).
